The record followed here is paper PMC7827406, “Structure–Activity Relationship (SAR) Study of Spautin-1 to Entail the Discovery of Novel NEK4 Inhibitors” (International Journal of Molecular Sciences, 2021).

Read-outs that look alike come from different tables or passages of the source.

What all share (assay): biochemical
One assay has as its target T1, TrkC(h) (Homo sapiens, UniProt Q16288).
T1 construct: gene NTRK3
More on the design: Eurofins KinaseProfiler full panel at Km ATP, residual kinase activity (%) relative to DMSO. The method, then:
(§1) Eurofins performed a “Full KP Panel [Km ATP], KinaseProfile” which contains 429 radiometric kinase activity assays. The remaining kinase activity (%) was determined after treatment with the compounds at a concentration of 10 µM (Cfr. supporting information). Since we could not confirm the interaction between Spautin-1 analogues and USP13, a kinase screening was performed using a set of four compounds (Spautin-1 and three analogues) to discover off-targets and identify kinases that are potentially responsible for the reduction in cell viability observed in our screen (Table 2). The KINOMEscan from Eurofins was performed (see Table S1). This screen consists of a competitive binding assay in which the DNA-tagged kinase is incubated with one of the compounds in the presence of immobilized active site binding ligands. Binding of the compounds to the kinase hampers the binding of the kinase to the ligands and this inhibition was quantified by qPCR. The residual kinase activity, which represents the percentage of kinase attached to the immobilized ligands, was determined for 428 kinases at a standard screening concentration of 10 µM of the compounds dissolved in DMSO [61].

The target of the next assay is TYK2(h) (Homo sapiens, UniProt P29597). More on the design: Eurofins KinaseProfiler full panel at Km ATP, residual kinase activity (%) relative to DMSO. On the procedure: as §1
In a further assay the target is T2, Mnk2(h) (Homo sapiens, UniProt Q9HBH9).
T2 construct: gene MKNK2
More on the design: Eurofins KinaseProfiler full panel at Km ATP, residual kinase activity (%) relative to DMSO. On the procedure:
as §1

A further assay addresses T3, IR(h), activated (Homo sapiens, UniProt P06213).
T3 construct: gene INSR
More on the design: Eurofins KinaseProfiler full panel at Km ATP, residual kinase activity (%) relative to DMSO. The method, then:
as §1

Another assay concerns the target T4, ZAP-70(h) (Homo sapiens, UniProt P43403).
T4 construct: gene ZAP70
T4 sequence (P43403 1-619): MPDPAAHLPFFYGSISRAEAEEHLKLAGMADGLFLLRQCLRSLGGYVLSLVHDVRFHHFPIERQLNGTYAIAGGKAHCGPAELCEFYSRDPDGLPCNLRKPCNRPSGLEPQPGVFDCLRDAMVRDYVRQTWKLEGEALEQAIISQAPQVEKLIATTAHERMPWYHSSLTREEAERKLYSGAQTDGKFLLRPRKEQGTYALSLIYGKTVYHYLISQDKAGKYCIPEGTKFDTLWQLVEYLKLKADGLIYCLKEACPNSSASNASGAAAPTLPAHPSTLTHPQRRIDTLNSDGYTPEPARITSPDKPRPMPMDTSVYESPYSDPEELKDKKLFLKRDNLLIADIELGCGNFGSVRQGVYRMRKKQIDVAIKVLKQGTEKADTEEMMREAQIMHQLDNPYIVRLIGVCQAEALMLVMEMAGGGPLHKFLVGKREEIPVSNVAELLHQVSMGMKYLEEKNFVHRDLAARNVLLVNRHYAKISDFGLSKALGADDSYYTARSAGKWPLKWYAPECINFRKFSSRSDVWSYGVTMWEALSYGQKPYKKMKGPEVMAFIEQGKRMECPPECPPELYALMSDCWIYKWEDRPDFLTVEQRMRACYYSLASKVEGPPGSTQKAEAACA
More on the design: Eurofins KinaseProfiler full panel at Km ATP, residual kinase activity (%) relative to DMSO. The method, then: as §1

For a further assay, the target named is DYRK1A(h) (Homo sapiens, UniProt Q13627). More on the design: Eurofins KinaseProfiler full panel at Km ATP, residual kinase activity (%) relative to DMSO. The method, then:
as §1

For the next assay, the target named is T5, ACTR2(h) (Homo sapiens, UniProt P27037).
T5 construct: gene ACVR2A
More on the design: Eurofins kinase panel, residual kinase activity (%) at 10 uM relative to DMSO. The method, then: (§2) Eurofins performed a “Full KP Panel [Km ATP], KinaseProfile” which contains 429 radiometric kinase activity assays. The remaining kinase activity (%) was determined after treatment with the compounds at a concentration of 10 µM (Cfr. supporting information). Since we could not confirm the interaction between Spautin-1 analogues and USP13, a kinase screening was performed using a set of four compounds (Spautin-1 and three analogues) to discover off-targets and identify kinases that are potentially responsible for the reduction in cell viability observed in our screen (Table 2). The KINOMEscan from Eurofins was performed (see Table S1). This screen consists of a competitive binding assay in which the DNA-tagged kinase is incubated with one of the compounds in the presence of immobilized active site binding ligands. Binding of the compounds to the kinase hampers the binding of the kinase to the ligands and this inhibition was quantified by qPCR.

The next assay concerns the target T6, MAPK2(m) (Mus musculus, UniProt P63085).
T6 construct: gene Mapk1
More on the design: Eurofins kinase panel, residual kinase activity (%) at 10 uM relative to DMSO. The method, then:
as §2

A further assay deals with T7, MLCK(h) (Homo sapiens, UniProt Q15746).
T7 construct: gene MYLK
More on the design: Eurofins kinase panel, residual kinase activity (%) at 10 uM relative to DMSO. On the procedure: as §2

A further assay deals with T8, MAPK1(h) (Homo sapiens, UniProt P27361).
T8 construct: gene MAPK3
More on the design: Eurofins kinase panel, residual kinase activity (%) at 10 uM relative to DMSO. On the procedure: as §2

The target of another assay is T9, MAPK2(h) (Homo sapiens, UniProt P28482).
T9 construct: gene MAPK1
More on the design: Eurofins kinase panel, residual kinase activity (%) at 10 uM relative to DMSO. On the procedure: as §2

Where [1] appears, read: read-out: Residual activity (%) Spautin-1 5aa.
Where [2] appears, read: read-out: Residual activity (%) Spautin-1.
The mark [3] stands for this setting: read-out: Residual activity (%) 5as.
The mark [4] stands for this setting: read-out: Residual activity (%) 5at.
[5] abbreviates: read-out: Residual activity (%) 5ay.

T6 sequence (P63085 whole entry): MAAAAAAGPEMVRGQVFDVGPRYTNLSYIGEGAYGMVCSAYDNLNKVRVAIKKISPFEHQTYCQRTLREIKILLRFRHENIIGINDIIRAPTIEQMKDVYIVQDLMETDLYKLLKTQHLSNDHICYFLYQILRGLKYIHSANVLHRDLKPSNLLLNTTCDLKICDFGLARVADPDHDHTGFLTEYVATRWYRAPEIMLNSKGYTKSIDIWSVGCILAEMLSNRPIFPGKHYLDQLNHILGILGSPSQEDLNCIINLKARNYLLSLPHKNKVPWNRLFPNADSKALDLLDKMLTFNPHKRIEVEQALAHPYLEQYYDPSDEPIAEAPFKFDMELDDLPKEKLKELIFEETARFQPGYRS
TYK2(h), sequence (P29597 whole entry): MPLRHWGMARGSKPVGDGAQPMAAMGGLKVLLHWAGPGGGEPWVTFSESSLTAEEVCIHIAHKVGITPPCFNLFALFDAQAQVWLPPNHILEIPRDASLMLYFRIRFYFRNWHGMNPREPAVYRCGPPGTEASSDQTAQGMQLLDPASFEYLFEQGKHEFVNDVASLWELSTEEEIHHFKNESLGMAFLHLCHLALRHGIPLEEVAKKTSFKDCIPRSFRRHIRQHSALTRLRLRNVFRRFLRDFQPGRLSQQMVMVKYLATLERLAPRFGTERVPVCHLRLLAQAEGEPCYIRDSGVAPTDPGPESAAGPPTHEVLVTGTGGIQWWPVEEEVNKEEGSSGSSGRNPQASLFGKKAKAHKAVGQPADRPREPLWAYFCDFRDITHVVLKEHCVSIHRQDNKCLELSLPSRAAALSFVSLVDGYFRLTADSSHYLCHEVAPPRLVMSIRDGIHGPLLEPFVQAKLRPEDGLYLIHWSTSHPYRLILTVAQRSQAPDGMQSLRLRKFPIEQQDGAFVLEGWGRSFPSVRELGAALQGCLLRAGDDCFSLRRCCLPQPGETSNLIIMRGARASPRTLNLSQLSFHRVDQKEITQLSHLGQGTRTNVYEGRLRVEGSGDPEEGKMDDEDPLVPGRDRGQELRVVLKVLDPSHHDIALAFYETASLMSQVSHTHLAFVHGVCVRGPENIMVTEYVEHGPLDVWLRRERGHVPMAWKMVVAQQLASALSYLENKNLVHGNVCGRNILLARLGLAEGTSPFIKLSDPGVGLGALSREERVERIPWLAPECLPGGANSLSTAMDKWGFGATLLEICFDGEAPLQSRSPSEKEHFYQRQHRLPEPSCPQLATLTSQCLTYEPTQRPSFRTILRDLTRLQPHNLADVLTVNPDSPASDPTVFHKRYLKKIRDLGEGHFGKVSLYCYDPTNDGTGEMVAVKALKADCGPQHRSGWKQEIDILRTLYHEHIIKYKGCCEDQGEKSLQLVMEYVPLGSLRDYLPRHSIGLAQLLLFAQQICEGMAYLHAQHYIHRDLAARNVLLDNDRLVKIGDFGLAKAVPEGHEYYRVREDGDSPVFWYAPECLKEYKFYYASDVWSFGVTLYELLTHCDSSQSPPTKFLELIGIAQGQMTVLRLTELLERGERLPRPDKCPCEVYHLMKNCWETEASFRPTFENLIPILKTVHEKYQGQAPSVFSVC
T3 sequence (P06213 whole entry): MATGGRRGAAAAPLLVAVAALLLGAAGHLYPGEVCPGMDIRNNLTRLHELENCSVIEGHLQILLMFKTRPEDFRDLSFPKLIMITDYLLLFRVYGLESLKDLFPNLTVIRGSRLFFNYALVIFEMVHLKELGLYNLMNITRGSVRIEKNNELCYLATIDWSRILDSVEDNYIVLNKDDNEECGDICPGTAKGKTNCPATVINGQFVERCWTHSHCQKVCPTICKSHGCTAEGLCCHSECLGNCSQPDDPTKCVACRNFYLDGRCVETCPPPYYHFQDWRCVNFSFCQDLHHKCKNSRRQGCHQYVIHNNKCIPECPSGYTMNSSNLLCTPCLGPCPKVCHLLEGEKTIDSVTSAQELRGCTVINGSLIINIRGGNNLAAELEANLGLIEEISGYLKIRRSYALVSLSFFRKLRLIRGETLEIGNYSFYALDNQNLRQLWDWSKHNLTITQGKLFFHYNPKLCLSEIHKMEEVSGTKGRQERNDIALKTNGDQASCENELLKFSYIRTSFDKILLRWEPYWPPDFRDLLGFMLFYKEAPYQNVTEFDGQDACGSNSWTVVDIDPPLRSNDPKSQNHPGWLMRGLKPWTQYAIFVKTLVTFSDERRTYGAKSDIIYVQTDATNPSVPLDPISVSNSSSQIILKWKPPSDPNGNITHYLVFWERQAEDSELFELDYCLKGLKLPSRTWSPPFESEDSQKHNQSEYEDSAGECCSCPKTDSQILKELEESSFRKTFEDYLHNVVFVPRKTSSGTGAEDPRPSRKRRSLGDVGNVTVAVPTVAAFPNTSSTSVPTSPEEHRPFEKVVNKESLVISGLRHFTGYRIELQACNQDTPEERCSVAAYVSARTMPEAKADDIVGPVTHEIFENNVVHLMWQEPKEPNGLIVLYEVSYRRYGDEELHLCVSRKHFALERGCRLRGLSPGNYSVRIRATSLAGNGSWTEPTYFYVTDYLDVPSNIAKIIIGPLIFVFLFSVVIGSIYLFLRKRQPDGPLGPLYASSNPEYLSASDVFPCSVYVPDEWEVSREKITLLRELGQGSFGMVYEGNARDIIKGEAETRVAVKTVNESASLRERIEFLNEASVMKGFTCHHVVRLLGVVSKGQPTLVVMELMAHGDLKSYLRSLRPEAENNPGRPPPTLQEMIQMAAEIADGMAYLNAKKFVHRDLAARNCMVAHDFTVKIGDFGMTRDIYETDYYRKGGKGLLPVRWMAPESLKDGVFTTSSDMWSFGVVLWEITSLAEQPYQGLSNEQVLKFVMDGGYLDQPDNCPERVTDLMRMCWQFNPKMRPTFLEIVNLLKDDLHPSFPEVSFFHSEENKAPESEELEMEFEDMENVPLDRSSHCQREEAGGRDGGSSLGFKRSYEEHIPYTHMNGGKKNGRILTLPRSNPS
T9 sequence (P28482 whole entry): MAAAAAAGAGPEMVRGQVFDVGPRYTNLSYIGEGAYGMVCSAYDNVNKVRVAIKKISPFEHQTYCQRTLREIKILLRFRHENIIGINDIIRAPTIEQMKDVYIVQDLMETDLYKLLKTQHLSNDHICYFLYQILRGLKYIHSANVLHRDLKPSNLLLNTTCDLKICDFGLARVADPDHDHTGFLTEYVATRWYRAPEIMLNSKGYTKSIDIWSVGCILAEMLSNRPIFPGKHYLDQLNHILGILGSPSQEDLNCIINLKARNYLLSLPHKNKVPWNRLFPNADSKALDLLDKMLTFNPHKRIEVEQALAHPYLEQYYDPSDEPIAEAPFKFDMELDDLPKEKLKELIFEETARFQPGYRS
T2 sequence (Q9HBH9 whole entry): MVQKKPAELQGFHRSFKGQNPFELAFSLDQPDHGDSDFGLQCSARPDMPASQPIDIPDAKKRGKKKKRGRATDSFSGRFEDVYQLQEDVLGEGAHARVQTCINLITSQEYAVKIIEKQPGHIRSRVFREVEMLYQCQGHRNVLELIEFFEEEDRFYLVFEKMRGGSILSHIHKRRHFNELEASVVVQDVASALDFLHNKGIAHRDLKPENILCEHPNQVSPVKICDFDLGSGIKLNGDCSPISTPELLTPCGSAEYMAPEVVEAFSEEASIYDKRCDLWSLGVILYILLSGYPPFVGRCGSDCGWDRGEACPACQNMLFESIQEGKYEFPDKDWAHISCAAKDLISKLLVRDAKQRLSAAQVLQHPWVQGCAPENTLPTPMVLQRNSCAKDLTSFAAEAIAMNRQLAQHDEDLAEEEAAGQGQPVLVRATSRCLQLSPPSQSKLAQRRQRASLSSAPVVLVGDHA
T5 sequence (P27037 whole entry): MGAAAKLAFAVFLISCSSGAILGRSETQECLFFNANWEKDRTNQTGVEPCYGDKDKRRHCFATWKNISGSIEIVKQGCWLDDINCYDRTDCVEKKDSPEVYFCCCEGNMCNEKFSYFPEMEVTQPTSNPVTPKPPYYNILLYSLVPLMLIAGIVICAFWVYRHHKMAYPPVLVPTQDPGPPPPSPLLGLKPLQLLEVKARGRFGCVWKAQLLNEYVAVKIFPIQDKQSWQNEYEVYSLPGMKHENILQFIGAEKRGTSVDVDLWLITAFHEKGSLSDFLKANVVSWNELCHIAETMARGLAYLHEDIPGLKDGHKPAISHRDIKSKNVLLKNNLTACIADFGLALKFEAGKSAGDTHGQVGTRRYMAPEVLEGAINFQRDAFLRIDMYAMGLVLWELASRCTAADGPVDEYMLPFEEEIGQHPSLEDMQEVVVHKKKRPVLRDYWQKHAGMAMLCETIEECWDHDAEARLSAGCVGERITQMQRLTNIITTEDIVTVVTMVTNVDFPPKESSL
T8 sequence (P27361 whole entry): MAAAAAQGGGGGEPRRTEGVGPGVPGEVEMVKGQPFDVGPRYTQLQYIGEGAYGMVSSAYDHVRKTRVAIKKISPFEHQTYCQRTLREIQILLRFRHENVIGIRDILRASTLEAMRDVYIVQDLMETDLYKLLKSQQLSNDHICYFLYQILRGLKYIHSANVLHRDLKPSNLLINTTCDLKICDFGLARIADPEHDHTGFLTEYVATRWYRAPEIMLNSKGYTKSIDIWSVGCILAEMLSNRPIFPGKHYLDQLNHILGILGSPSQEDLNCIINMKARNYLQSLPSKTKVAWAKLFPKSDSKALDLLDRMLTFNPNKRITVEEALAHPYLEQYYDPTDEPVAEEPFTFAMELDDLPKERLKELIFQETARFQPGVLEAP

Turning to `Fc1ccc(CNc2ncnc3ccc(F)cc23)cc1` [5aa, 6-Fluoro-N-(4-fluorobenzyl)-4-Quinazolinamine], the remaining activity at 10 µM at TrkC(h) (setting [1]) was determined as 111%; on TYK2(h) (setting [1]) it was 109%; at Mnk2(h) (setting [1]), 93%; on IR(h), activated (setting [1]), 98%; on ZAP-70(h) (setting [1]), 146%; on DYRK1A(h) (setting [1]), 74%. For the same molecule, the remaining activity at 10 µM on ACTR2(h) (setting [2]) came out at 92%; on MAPK2(m) (setting [2]), 104%; at MLCK(h) (setting [2]), 83%; on MAPK1(h) (setting [2]) it was 96%; on MAPK2(h) (setting [2]) it was 96%.

As to `Fc1ccc(CCNc2ncnc3ccc(F)cc23)cc1` [5as, 6-Fluoro-N-[2-(4-Fluorophenyl)Ethyl]-4-Quinazolinamine], the remaining activity at 10 µM on TrkC(h) (setting [3]) worked out at 104%; at TYK2(h) (setting [3]), 86%; at Mnk2(h) (setting [3]), 83%; at IR(h), activated (setting [3]) it was 64%; on ZAP-70(h) (setting [3]) it was 146%; at DYRK1A(h) (setting [3]), 68%. Moreover, the remaining activity at 10 µM at ACTR2(h) (setting [3]) stood at 83%; at MAPK2(m) (setting [3]) it was 105%; at MLCK(h) (setting [3]), 88%; on MAPK1(h) (setting [3]), 93%; on MAPK2(h) (setting [3]), 87%.

In the case of `Fc1ccc2ncnc(NCCc3ccc(Cl)cc3)c2c1` [5at, N-[2-(4-Chlorophenyl)Ethyl]-6-Fluoro-4-Quinazolinamine], the remaining activity at 10 µM was 97% on TrkC(h) (setting [4]); 84% at TYK2(h) (setting [4]); 80% at Mnk2(h) (setting [4]); 76% on IR(h), activated (setting [4]); 130% at ZAP-70(h) (setting [4]); 63% on DYRK1A(h) (setting [4]). For the same molecule, the remaining activity at 10 µM came out at 97% at ACTR2(h) (setting [4]); 91% at MAPK2(m) (setting [4]); 86% on MLCK(h) (setting [4]); 114% at MAPK1(h) (setting [4]); 83% at MAPK2(h) (setting [4]).

As to `COc1ccc2ncnc(Nc3cccc(F)c3)c2c1` [5ay, N-(3-Fluorophenyl)-6-Methoxy-4-Quinazolinamine], the remaining activity at 10 µM at TrkC(h) (setting [5]) stood at 114%; on TYK2(h) (setting [5]), 75%; on Mnk2(h) (setting [5]), 19%; on IR(h), activated (setting [5]), 71%; at ZAP-70(h) (setting [5]), 113%; on DYRK1A(h) (setting [5]) it was 29%. Besides, the remaining activity at 10 µM was 85% at ACTR2(h) (setting [5]); 118% on MAPK2(m) (setting [5]); 69% at MLCK(h) (setting [5]); 84% at MAPK1(h) (setting [5]); 100% at MAPK2(h) (setting [5]).
